Measured values reported in patent EP4789665A1, “TREATMENT OF HIS HYPORESPONDERS” (NewAmsterdam Pharma B.V., priority 2021, dated 2023).
Read-outs that look alike come from different tables or passages of the source.

Legend:
[1] = Phase 2 study of obicetrapib as adjunct to high-intensity statin therapy: safety and tolerability (adverse events, laboratory values, vital signs); format: in vivo, human; conditions: for Neoplasms benign, malignant and unspecified: including cysts and polyps; for AEs, total: subjects (%): safety population
Protocol: Patients were randomly assigned to receive one of the three treatments investigative treatments. All treatments were to be taken once daily with food for 8 weeks. Safety was assessed throughout the trial by monitoring adverse events and concomitant medication use, 12-lead electrocardiograms (ECGs), vital signs, laboratory safety assessments and physical examinations. Additional assessments included salivary cortisol, plasma aldosterone, high-sensitivity C-reactive protein (hsCRP) and endothelin 1.
Safety and tolerability profiles of obicetrapib assessed by clinical laboratory values and incidence of adverse events (AEs).
(§1) The primary outcome measure was LDL-C (percent change). Secondary outcome measures included ApoB, Non-HDL-C and HDL-C (percent change). The Intent-to-Treat (ITT) Population included all participants randomized into the study. The Modified ITT (mITT) Population included all participants in the ITT Population who receive at least 1 dose of any study drug and have a baseline value for the LDL-C assessment. The Safety Population included all participants who receive at least 1 dose of any study drug. The mITT Population was the primary population for the efficacy analyses. The primary efficacy analysis of the percent change in LDL-C was performed using a mixed model for repeated measures (MMRM) approach. In order to maintain the overall Type I error rate, the secondary efficacy endpoints were tested sequentially at the 0.05 significance level according to the pre-specified order of hierarchy. All safety endpoints were summarized descriptively. No statistical inference was applied to the safety endpoints. Plasma obicetrapib concentrations were summarized with descriptive statistics based on the PK Population.

[2] = Phase 2 study: plasma obicetrapib concentrations during PK follow-up after end of treatment; format: in vivo, human
Protocol: The screening period for this study took up to 2-weeks. Afterwards patients were randomized to placebo, 5 mg obicetrapib or 10 mg obicetrapib for an 8-week treatment period. After the treatment period, patients continued for a 4-week safety follow-up and a 15-week PK follow-up.
as §1

CETP = molecular target: T1, CETP (Homo sapiens, UniProt P11597); conditions: TULIP, cited from earlier work
T1 construct: endogenous in cells; host or cells: trial patients (in vivo, circulating plasma CETP)
T1 sequence (P11597 18-493): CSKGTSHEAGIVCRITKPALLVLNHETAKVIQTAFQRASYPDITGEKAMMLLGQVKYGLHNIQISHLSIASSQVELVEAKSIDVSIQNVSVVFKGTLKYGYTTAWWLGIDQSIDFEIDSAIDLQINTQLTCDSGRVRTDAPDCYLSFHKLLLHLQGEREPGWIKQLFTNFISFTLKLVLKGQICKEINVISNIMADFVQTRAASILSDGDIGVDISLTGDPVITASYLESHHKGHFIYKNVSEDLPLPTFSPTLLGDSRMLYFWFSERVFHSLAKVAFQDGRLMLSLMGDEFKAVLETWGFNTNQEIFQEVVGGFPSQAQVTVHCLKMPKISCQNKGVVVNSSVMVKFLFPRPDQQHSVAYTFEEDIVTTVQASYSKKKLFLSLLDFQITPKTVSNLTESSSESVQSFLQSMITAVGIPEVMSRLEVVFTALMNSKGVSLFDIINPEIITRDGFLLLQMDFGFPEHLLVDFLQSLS

[3] = 5 mg group (N=40), listed as obicetrapib
[4] = 10 mg group (N=40), listed as obicetrapib
[5] = either obicetrapib treatment group (5 mg, 10 mg) compared with placebo

CCOC(=O)N1c2ccc(C(F)(F)F)cc2[C@@H](N(Cc2cc(C(F)(F)F)cc(C(F)(F)F)c2)c2ncc(OCCCC(=O)O)cn2)C[C@H]1CC [Obicetrapib, (2R,4S)-4-{[3,5-bis(trifluoromethyl)benzyl]-[5-(3-carboxypropoxy)pyrimidin-2-yl]amino}-2-ethyl-6-trifluoromethyl-3,4-dihydro-2H-quinoline-1-carboxylic acid ethyl ester]
Basal cell carcinoma ([1]; 5 mg (n=40)): 0 (0.0) n (%) | Fatigue ([1]; 5 mg (n=40)): 2 (5.0) n (%) | Gastrointestinal disorders ([1]; 5 mg (n=40)): 3 (7.5) n (%) | General disorders and administration site conditions ([1]; 5 mg (n=40)): 3 (7.5) n (%) | Hypertension ([1]; 5 mg (n=40)): 2 (5.0) n (%) | Infections and infestations ([1]; 5 mg (n=40)): 1 (2.5) n (%) | Injury, poisoning and procedural complications ([1]; 5 mg (n=40)): 3 (7.5) n (%) | Investigations ([1]; 5 mg (n=40)): 2 (5.0) n (%) | Metabolism and nutrition disorders ([1]; 5 mg (n=40)): 2 (5.0) n (%) | Muscle spasms ([1]; 5 mg (n=40)): 0 (0.0) n (%) | Musculoskeletal and connective tissue disorders ([1]; 5 mg (n=40)): 4 (10.0) n (%) | Nausea ([1]; 5 mg (n=40)): 1 (2.5) n (%) | Nervous system disorders ([1]; 5 mg (n=40)): 2 (5.0) n (%) | Respiratory, thoracic and mediastinal disorders ([1]; 5 mg (n=40)): 2 (5.0) n (%) | Type 2 diabetes mellitus ([1]; 5 mg (n=40)): 2 (5.0) n (%) | Vascular disorders ([1]; 5 mg (n=40)): 2 (5.0) n (%) | Neoplasms benign, malignant and unspecified ([1]; 5 mg (n=40)): 0 (0.0) n (%) | tolerability / safety profile ([1]; 5 mg and 10 mg on top of high intensity statin therapy): well tolerated with a safety profile similar to placebo | AEs, related: number of events ([1]; 5 mg group (N=40)): 2 | AEs, related: subjects (%) ([1]; 5 mg group (N=40)): 2 (5.0) | AEs, severe ([1]; 5 mg group (N=40)): 0 | AEs, total: number of events ([1]; 5 mg group (N=40)): 24 | Deaths ([1]; 5 mg group (N=40)): 0 | SAEs, related ([1]; 5 mg group (N=40)): 0 | SAEs, total ([1]; 5 mg group (N=40)): 0 | TEAEs leading to discontinuation of study drug ([1]; 5 mg group (N=40)): 0 | TESAEs leading to discontinuation of study ([1]; 5 mg group (N=40)): 0 | AEs, total: subjects (%) ([1]; 5 mg group (N=40)): 13 (32.5) | AEs, total: subjects (%) [1, 3]: 15 | AEs, related: subjects (%) [1, 3]: 2 | Basal cell carcinoma ([1]; 10 mg (n=40)): 0 (0.0) n (%) | Fatigue ([1]; 10 mg (n=40)): 1 (2.5) n (%) | Gastrointestinal disorders ([1]; 10 mg (n=40)): 0 (0.0) n (%) | General disorders and administration site conditions ([1]; 10 mg (n=40)): 2 (5.0) n (%) | Hypertension ([1]; 10 mg (n=40)): 0 (0.0) n (%) | Infections and infestations ([1]; 10 mg (n=40)): 0 (0.0) n (%) | Injury, poisoning and procedural complications ([1]; 10 mg (n=40)): 1 (2.5) n (%) | Investigations ([1]; 10 mg (n=40)): 0 (0.0) n (%) | Metabolism and nutrition disorders ([1]; 10 mg (n=40)): 0 (0.0) n (%) | Muscle spasms ([1]; 10 mg (n=40)): 0 (0.0) n (%) | Musculoskeletal and connective tissue disorders ([1]; 10 mg (n=40)): 4 (10.0) n (%) | Nausea ([1]; 10 mg (n=40)): 0 (0.0) n (%) | Nervous system disorders ([1]; 10 mg (n=40)): 2 (5.0) n (%) | Respiratory, thoracic and mediastinal disorders ([1]; 10 mg (n=40)): 0 (0.0) n (%) | Type 2 diabetes mellitus ([1]; 10 mg (n=40)): 0 (0.0) n (%) | Vascular disorders ([1]; 10 mg (n=40)): 0 (0.0) n (%) | Neoplasms benign, malignant and unspecified ([1]; 10 mg (n=40)): 0 (0.0) n (%) | AEs, related: number of events ([1]; 10 mg group (N=40)): 1 | AEs, related: subjects (%) ([1]; 10 mg group (N=40)): 1 (2.5) | AEs, severe ([1]; 10 mg group (N=40)): 0 | AEs, total: number of events ([1]; 10 mg group (N=40)): 11 | Deaths ([1]; 10 mg group (N=40)): 0 | SAEs, related ([1]; 10 mg group (N=40)): 0 | SAEs, total ([1]; 10 mg group (N=40)): 0 | TEAEs leading to discontinuation of study drug ([1]; 10 mg group (N=40)): 0 | TESAEs leading to discontinuation of study ([1]; 10 mg group (N=40)): 0 | AEs, total: subjects (%) ([1]; 10 mg group (N=40)): 8 (20.0) | AEs, total: subjects (%) [1, 4]: 8 | AEs, related: subjects (%) [1, 4]: 1 | laboratory parameters (chemistry, hematology, urinalysis) [1, 5]: no signals in any laboratory parameters | vital signs [1, 5]: no changes in vital signs | Plasma obicetrapib levels decreased by (median) ([2]; 5 mg group, 4 weeks after the end-of-treatment): 92% | Plasma obicetrapib levels decreased by (median) ([2]; 5 mg group, 8 weeks after the end-of-treatment): 98% | Plasma obicetrapib levels decreased by (median) ([2]; 5 mg group, 15 weeks after the end-of-treatment): 99% | Plasma obicetrapib levels decreased by (median) ([2]; 10 mg group, 4 weeks after the end-of-treatment): 93% | Plasma obicetrapib levels decreased by (median) ([2]; 10 mg group, 8 weeks after the end-of-treatment): 98% | Plasma obicetrapib levels decreased by (median) ([2]; 10 mg group, 15 weeks after the end-of-treatment): 99% | nearly completely cleared from circulation by (time post-treatment) ([2]; after 8 weeks of once daily treatment): 4-8 weeks | LDL-C reductions (CETP; 1 mg for 12 weeks, mild dyslipidemia): 27% | LDL-C reductions (CETP; 2.5 mg for 12 weeks, mild dyslipidemia): 33% | LDL-C reductions (CETP; 5 mg for 12 weeks, mild dyslipidemia): 45% | incremental LDL-C reduction compared with statin monotherapy (CETP; 10 mg daily with 20 mg atorvastatin or 10 mg rosuvastatin, 12 weeks): up to 50% | LDL-C reductions (CETP; 10 mg for 12 weeks, mild dyslipidemia): 45% | LDL-C reductions (CETP; 10 mg obicetrapib plus 10 mg rosuvastatin): 63% | LDL-C reductions (CETP; 10 mg obicetrapib plus 20 mg atorvastatin): 68%
